Data set [1] concerns Normal human epidermal keratinocytes (NHEK). Description: Keratinocyte proliferation (DNA content, fluorometric). Type of data set: cell-based.
Procedure: Normal human epidermal keratinocytes (NHEK) derived from neonatal foreskin were used for all experiments. Media were purchased from Clonetics Corp., San Diego, Calif. Cell stocks frozen in passage 2 were grown in Keratinocyte Growth Medium (KGM) and passaged when 70-80% confluent. Cells were seeded in 96 well plates (Corning) at a density of 7500 cells/well in KGM. After 24 hours, cells were rinsed and dosed with test compounds in 200 μl of Keratinocyte Basal Medium (KBM). Plates were incubated for three days at 37° C., 5% CO2. Cell proliferation was estimated by assaying for DNA content by a fluorometric method described by Rago et al. (Analytical Biochemistry, 191:31-34, 1990). Medium was removed and cells were rinsed with phosphate buffered saline solution. 100 μl of sterile distilled water was added to each well and plates were frozen at -70° C. for one and a half hours. Plates were thawed for one hour at which time 100 μl of a 20 ug/ml solution of Bisbenzimide H33258 fluorochrome (Calbiochem Corp., La Jolla, Calif.) was added to each well. The fluorochrome was prepared just prior to use in 10 mM Tris, 1 mM EDTA, 4M NaCl, pH 7.4. Plates were read in a Millipore Cytofluor fluorescent plate reader to quantify DNA (excitation 360 nm, emission 460 nm). Percent increase over control was calculated from blank-corrected readings as (treated-untreated)/(untreated)*100%.
Data set [2] concerns Neonatal human dermal fibroblasts. Description: Collagen synthesis (secreted procollagen 1 immunoassay). Particulars: 0.2 to 20 mM, 48 hours, serum-free medium. The format is cell-based. On the procedure: Neonatal human dermal fibroblasts were purchased from Clonetics Corp., San Diego, Calif. All materials for cell culture were purchased from Life Technologies, N.Y. Cells were maintained in DMEM with 10% fetal bovine serum and used in passages 5-10, Confluent 96-well plates containing fibroblasts were treated with test materials (0.2 to 20 mM) in serum-free medium for 48 hours. […] This was carried out in a BioDot SF apparatus according to the manufacturer's instructions (BioRad Labs, CA) and the blot was developed using a Vectastain Kit (PK6104, Vector Labs, CA) as per the manufacturer's directions. Color intensity was quantitated using an Ultroscan XL densitometer (Pharmacia LKB). Fold increase was calculated as (density of treated)/untreated.

Where “and” joins values, the source holds several entries; their conditions need not be identical. Equal values may be shown once. Read-outs that look alike come from different tables or passages of the source.

Regarding `O=C(O)CC(=O)C(=O)O` [Oxaloacetate], the activation at 2 µM in data set [1] (Homo sapiens, NHEK, 72 h, read-out: % Increase Over Control (keratinocyte proliferation), Table 9, oxaloacetate 0.002 mM) was determined as 11%. Further, in data set [1] (Homo sapiens, NHEK, 72 h, read-out: % Increase Over Control (keratinocyte proliferation), Table 9, oxaloacetate 0.02 mM), the activation at 20 µM worked out at 15%. Besides, in data set [1] (Homo sapiens, NHEK, 72 h, read-out: % Increase Over Control (keratinocyte proliferation), Table 9, oxaloacetate 0.08 mM), the activation at 80 µM is 56%. The activation at 200 µM in data set [1] (Homo sapiens, NHEK, 72 h, read-out: % Increase Over Control (keratinocyte proliferation), Table 9, oxaloacetate 0.2 mM) amounted to 22%. Also, in data set [1] (Homo sapiens, NHEK, 72 h, read-out: % Increase Over Control (keratinocyte proliferation), Table 9, oxaloacetate 2.5 mM), the activation at 2500 µM was 40%. Also, the activation at 5000 µM in data set [1] (Homo sapiens, NHEK, 72 h, read-out: % Increase Over Control (keratinocyte proliferation), Table 9, oxaloacetate 5.0 mM) came to 35%. The activation at 20000 µM in data set [1] (Homo sapiens, NHEK, 72 h, read-out: % Increase Over Control (keratinocyte proliferation), Table 9, oxaloacetate 20 mM) is 44%. Further, the “% Increase Over Control (keratinocyte proliferation)” value in data set [1] (Table 9, oxaloacetate 0.02 mM) was found to be 30%; in data set [1] (Table 9, oxaloacetate 0.2 mM), 20%; in data set [1] (Table 9, oxaloacetate 2.5 mM), 37%; in data set [1] (Table 9, oxaloacetate 5.0 mM), 52%. Further, the “Maximum fold over Control (collagen synthesis)” value in data set [2] is listed as 3.0 fold.

Turning to `NC(=O)C(=O)O` [Oxamate], in data set [1] (Homo sapiens, NHEK, 72 h, Table 3, oxamate 0.025 mM, read-out: % Increase Over Control (keratinocyte proliferation)), the activation at 25 µM turned out to be 20%. The activation at 313 µM in data set [1] (Homo sapiens, NHEK, 72 h, Table 3, oxamate 0.313 mM, read-out: % Increase Over Control (keratinocyte proliferation)) is 18%. In addition, the activation at 1250 µM in data set [1] (Homo sapiens, NHEK, 72 h, Table 3, oxamate 1.25 mM, read-out: % Increase Over Control (keratinocyte proliferation)) is 28%. In addition, the activation at 20000 µM in data set [1] (Homo sapiens, NHEK, 72 h, Table 3, oxamate 20 mM, read-out: % Increase Over Control (keratinocyte proliferation)) was determined as 0%. Further, the “% Increase Over Control (keratinocyte proliferation)” value is 19% in data set [1] (Table 3, oxamate 0.025 mM); 32% in data set [1] (Table 3, oxamate 0.313 mM); 24% and 40% in data set [1] (Table 3, oxamate 1.25 mM). In addition, the “% Increase Over Control” value in data set [1] (Table 11, oxamate 2.5 mM, pyruvate 0) was determined as 0%; in data set [1] (Table 11, oxamate 5.0 mM, pyruvate 0), 0%; in data set [1] (Table 11, oxamate 10 mM, pyruvate 0) it was 0%; in data set [1] (Table 11, oxamate 15 mM, pyruvate 0) it was 0%; in data set [1] (Table 11, oxamate 20 mM, pyruvate 0) it was 0%; in data set [1] (Table 12, oxamate 0.313 mM, malate 0) it was 32%. Moreover, the “% Increase Over Control” value in data set [1] (Table 12, oxamate 0.625 mM, malate 0) amounted to 19%; in data set [1] (Table 12, oxamate 1.25 mM, malate 0) it was 40%; in data set [1] (Table 12, oxamate 2.5 mM, malate 0), 25%; in data set [1] (Table 12, oxamate 5.0 mM, malate 0), 20%; in data set [1] (Table 12, oxamate 10 mM, malate 0) it was 0%. The “Maximum fold over Control (collagen synthesis)” value in data set [2] was found to be 1.4 fold.

The values are drawn from patent US5853742A, “Cosmetic compositions containing lactate dehydrogenase inhibitors” (priority 1997, dated 1998).
